Measured values reported in patent US5516647A, “Compounds useful as alkaline phosphatase inhibitors and therapeutic agents” (Abbott Laboratories, priority 1993, dated 1996).

Legend:
[1] = system: placental and intestinal isoenzymes; conditions: background art; cited from earlier work
tissue-nonspecific AP = conditions: background art; cited from earlier work
human intestinal AP = molecular target: T1, human intestinal AP (Homo sapiens, UniProt P09923); test: Inhibition of human intestinal AP isoenzyme (p-nitrophenylphosphate hydrolysis); type: biochemical
T1 construct: purchased Aalto Scientific, Ltd., Vista, Calif
T1 sequence (P09923 20-503 limits assumed): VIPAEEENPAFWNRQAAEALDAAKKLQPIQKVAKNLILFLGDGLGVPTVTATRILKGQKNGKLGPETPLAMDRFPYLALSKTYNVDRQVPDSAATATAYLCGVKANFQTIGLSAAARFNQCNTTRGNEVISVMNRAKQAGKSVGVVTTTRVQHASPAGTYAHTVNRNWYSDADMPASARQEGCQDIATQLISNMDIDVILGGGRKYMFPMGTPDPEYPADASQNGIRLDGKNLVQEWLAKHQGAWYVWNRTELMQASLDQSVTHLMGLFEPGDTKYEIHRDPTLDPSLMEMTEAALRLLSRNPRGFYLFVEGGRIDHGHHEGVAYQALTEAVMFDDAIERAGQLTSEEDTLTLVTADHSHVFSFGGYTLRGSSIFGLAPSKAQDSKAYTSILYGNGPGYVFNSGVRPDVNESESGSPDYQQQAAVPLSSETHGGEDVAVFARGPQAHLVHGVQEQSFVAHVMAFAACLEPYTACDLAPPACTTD
Method: (§1) Human intestinal AP was obtained from Aalto Scientific, Ltd. Vista, Calif. […] L-Phenylalanine was obtained from Aldrich Chemical Company, Milwaukee, Wis. Human bone AP was isolated from human osteosarcoma-derived cell line, Saos-2 (Catalog No. HTB 85, The American Type Culture Collection, 12301 Parklawn Drive, Rockville, Md.) by butanol extraction as described by J. R. Farley et al., (1989) Clin Chem. 35, 223-229.
(§2) AP activity was determined with VP Bichromatic Analyzer (Abbott Laboratories) by monitoring the appearance of the yellow product, p-nitrophenol, produced as a result of the enzyme catalyzed hydrolysis of the colorless substrate, p-nitrophenylphosphate. The stock preparations of E. coli and human AP were diluted to 0.3-1.0 U/ml with 0.1M Tris buffer, pH 8.0, containing 1 mM magnesium chloride, 0.1 mM zinc chloride and 5 mg/ml bovine serum albumin. […] The diluted enzyme solutions were prepared fresh just before the start of the experiments. The final assay conditions for the human and E. coli AP were as follows:
(§3) Human AP Isoenzymes: p-Nitrophenylphosphate (2.2 mmol/liter); Diethanolamine (500 mmol/liter); Magnesium chloride (1 mmol/liter); Zinc chloride (0.1 mmol/liter). The reaction pH was 10.2 at a reaction temperature of 37° C. and volume fraction (sample/total) of 0.033 (1:30).
(§4) The diluted enzymes and inhibitors at appropriate concentrations (as shown in the Figures) were hand pipetted into numbered cuvettes in the multicuvette assembly of the VP Bichromatic Analyzer. Once the assay was started, the analyzer dispensed an appropriate amount of the buffered solution of p-nitrophenylphosphate containing magnesium and zinc chlorides into each cuvette. The multicuvette assembly rotated and allowed measurement of absorbance changes at every two minutes intervals. A 415 nm-450 nm filter was used to assay AP activity. All enzyme activity measurements were done at least in duplicate and the average value was used in the data analyses.
(§5) The I50 value for APl-3 is similarly calculated from its dose response curve.

calf intestinal AP = calf intestinal AP (Bos taurus, UniProt P19111); conditions: used in an immunoassay; cited from earlier work
Sequence of calf intestinal AP (P19111 20-506): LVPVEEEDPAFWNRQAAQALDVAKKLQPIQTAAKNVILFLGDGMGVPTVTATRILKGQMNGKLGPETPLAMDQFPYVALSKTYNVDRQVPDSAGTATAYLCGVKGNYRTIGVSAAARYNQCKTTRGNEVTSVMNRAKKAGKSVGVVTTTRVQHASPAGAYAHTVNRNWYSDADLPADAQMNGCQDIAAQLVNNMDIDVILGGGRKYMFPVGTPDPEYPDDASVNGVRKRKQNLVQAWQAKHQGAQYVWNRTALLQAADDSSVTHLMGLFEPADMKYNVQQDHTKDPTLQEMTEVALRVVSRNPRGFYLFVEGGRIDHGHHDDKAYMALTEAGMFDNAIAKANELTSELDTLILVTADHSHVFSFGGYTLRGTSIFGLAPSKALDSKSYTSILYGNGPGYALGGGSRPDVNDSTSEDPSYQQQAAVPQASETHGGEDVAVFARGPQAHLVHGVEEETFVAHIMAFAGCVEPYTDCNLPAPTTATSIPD

human placental AP = molecular target: T2, human placental AP (Homo sapiens, UniProt P05187); test: Inhibition of human placental AP isoenzyme (p-nitrophenylphosphate hydrolysis); type: biochemical
T2 construct: purchased Sigma Chemical Co., St. Louis, Mo
T2 sequence (P05187 23-506 limits assumed): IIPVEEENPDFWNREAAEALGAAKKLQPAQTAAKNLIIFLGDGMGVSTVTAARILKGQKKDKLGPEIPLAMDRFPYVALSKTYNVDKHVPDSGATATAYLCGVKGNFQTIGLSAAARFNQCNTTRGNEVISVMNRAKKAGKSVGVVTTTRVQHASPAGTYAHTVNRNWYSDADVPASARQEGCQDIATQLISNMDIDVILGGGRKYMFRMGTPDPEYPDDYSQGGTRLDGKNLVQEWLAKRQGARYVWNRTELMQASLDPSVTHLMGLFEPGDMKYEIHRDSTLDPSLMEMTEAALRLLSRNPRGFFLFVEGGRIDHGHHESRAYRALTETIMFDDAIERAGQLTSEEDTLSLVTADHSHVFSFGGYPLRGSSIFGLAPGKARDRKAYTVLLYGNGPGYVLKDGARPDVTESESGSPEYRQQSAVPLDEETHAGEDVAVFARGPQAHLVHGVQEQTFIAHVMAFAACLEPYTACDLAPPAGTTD
Method: as §1, §2, §3, §4, §5

E. coli AP = test: Inhibition of (altered) E. coli AP (p-nitrophenylphosphate hydrolysis); type: biochemical; conditions: FIG. 7, at the concentration inhibiting human isoenzymes, high concentrations
Method: E. coli AP (APKJ3 and APKJ4) were obtained according to the methods disclosed in U.S. patent Ser. No. 08/031,165 and its CIP. APKJ4 is an E. coli AP in which the lysine at its position 177 has been replaced with cysteine.
as §2
E. coli AP: P-Nitrophenylphosphate (1 mmol/liter); Tris-chloride (100 mmol/liter); Magnesium chloride (1 mmol/liter); and Zinc chloride (0.1 mmol/liter). The reaction pH was 8.0 at a reaction temperature of 37° C. and volume fraction (sample/total) of 0.033 (1:30).
as §4

AP = conditions: cited from earlier work
[2] = FIG. 7, at the concentration compared with E. coli AP

Row | SMILES | inhibition of placental and intestinal isoenzymes [1] | sensitivity of tissue-nonspecific AP to inhibitor (tissue-nonspecific AP) | order of effectiveness, intestinal isoenzymes (human intestinal AP; FIG. 6) | inhibition of the intestinal isoenzymes (human intestinal AP; [2]) | IC50 (human intestinal AP; pH 10.2, 37° C., p-nitrophenylphosphate 2.2 mmol/liter, from dose response curves, read-out: [I]50 Intestinal AP: concentration of inhibitor that gives 50% inhibition of enzyme activity) | effect on specific immuno-signal generated by calf intestinal AP (calf intestinal AP) | effectiveness against placental isoenzymes (human placental AP; FIG. 5) | order of effectiveness, placental isoenzymes (human placental AP; FIG. 5) | inhibition of the placental isoenzymes (human placental AP; [2]) | IC50 (human placental AP; pH 10.2, 37° C., p-nitrophenylphosphate 2.2 mmol/liter, from dose response curves, read-out: [I]50 Placental AP: concentration of inhibitor that gives 50% inhibition of enzyme activity) | inhibition of the E. coli AP (E. coli AP) | AP inhibition by D- counterpart of levamisole (AP)
1 | c1ccc([C@H]2CN3CCSC3=N2)cc1 [Levamisole, (L-)2,3,5,6-tetrahydro-6-phenylimidazo[1,2-b]thiazole, reference compound] | only at much higher concentrations | strongly inhibited | APl-2>APl-1>L-phenylalanine>levamisole | 48% | 12 mM | does not interfere with the specific immuno-signal generated by calf intestinal AP | a lot less effective compared to compounds APl-1 and APl-2 | APl-2>APl-1>levamisole>L-phenylalanine | 80% | 2.2 mM | 65% | –
2 | c1ccc([C@@H]2CN3CCSC3=N2)cc1 [D- counterpart] | – | – | – | – | – | – | – | – | – | – | – | not an AP inhibitor
